Earlier results in patent US20230355508A1, “TREATING NEUROPATHIC PAIN IN SPINAL CORD INJURED INDIVIDUALS” (CNS Biosciences, Inc., priority 2016, published 2023).
Read-outs that look alike come from different tables or passages of the source.

Test system: neuropathic pain following spinal cord injury
Conditions: Finnerup et al., Scandinavian Journal of Pain 2009; for relief of neuropathic pain following spinal cord injury: patients with neuropathic pain following SCI

## CC[C@@H](C(N)=O)N1CCCC1=O (single isomer, unassigned) [levetiracetam]
Patients with SCI
  relief of spasm severity following spinal cord injury: does not relieve
  relief of neuropathic pain following spinal cord injury: does not relieve
Listed as Levetiracetam
  relief of neuropathic pain following spinal cord injury: no analgesic or other benefit
